Tested on: Prostaglandinsynthetase
Assay: Prostaglandin synthetase inhibition in vitro (method of Baumann et al.)
Assay type: biochemical
Conditions: concentration 10-^3 Mol/I, 1000 µM
Description: Die Erfindung betrifft somit weiterhin die Verwendung der erfindungsgemäßen Verbindungen der allgemeinen Formel I zur Behandlung und Bekämpfung von Entzündungen sowie von allergischen, insbesondere anaphylaktischen Reaktionen. So beträgt beispieslweise die durch 2-Äthyl-5-hydroxy-1,4-naphthochinon hervorgerufene Prostaglandinsynthetase-Hemmung in vitro bei einer Konzentration von 10-^3 Mol/I 87%. Die Bestimmung der Prostaglandinsynthetase-Hemmung wurde nach J. Baumann, F. v. Bruchhausen u. G. Wurm, Naunym-Schmiedeberg's Arch. Pharmacol. 307, 73 (1979) und j. Baumann, G. Wurm u. F. v. Bruchhausen, Arch. Pharm. (Weinheim) 313,330 (1980) durchgeführt.

Prostaglandinsynthetase-Hemmung in vitro: 87%
SMILES: CCC1=CC(=O)c2c(O)cccc2C1=O [2-Äthyl-5-hydroxy-1,4-naphthochinon]

Source: EP0036502B1, “2-Alkyl-5-hydroxy-1,4-naphthoquinones, process for their manufacture and pharmaceutical preparations containing these compounds” (ZYMA GMBH, priority 1980, dated 1981)
